Measurements from patent US11802111B2, “Cyclobutyl amide monoacylglycerol lipase modulators” (Janssen Pharmaceutica NV, priority 2020, dated 2023).

target: human MGL from HeLa cells (Homo sapiens (Human), UniProt Q99685); assay: MGL in vitro activity assay ([glycerol-1,3-3H]-oleoyl glycerol hydrolysis, activated carbon filtration); format: biochemical; conditions: 300 nM [Glycerol-1,3-3H]-oleoyl glycerol, one hour
How it was run: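 Activity measured as tritium in the flow-through after activated carbon filtration of a 1 h reaction containing 300 nM 3H-oleoyl glycerol, compound and HeLa-derived human MGL. Compounds screened at 10 μM; IC50 series start at an empirically chosen highest concentration.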

Chain of human MGL from HeLa cells (Q99685 whole entry): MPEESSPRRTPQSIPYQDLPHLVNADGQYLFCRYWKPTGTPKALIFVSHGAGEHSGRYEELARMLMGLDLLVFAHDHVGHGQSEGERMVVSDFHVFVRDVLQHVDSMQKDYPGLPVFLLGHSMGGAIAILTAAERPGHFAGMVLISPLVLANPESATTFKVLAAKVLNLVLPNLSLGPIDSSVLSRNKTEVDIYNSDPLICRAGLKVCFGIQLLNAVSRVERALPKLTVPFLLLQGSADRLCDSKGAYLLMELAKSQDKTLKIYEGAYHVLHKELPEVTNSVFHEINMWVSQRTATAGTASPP

IC50 [nM]	Compound
7240	C[C@]1(O)C[C@@H](C(=O)N2CC3(CCC(c4cn5c(n4)CCCC5)CC3)C2)C1 [Example 396, ((1s,3s)-3-Hydroxy-3-methylcyclobutyl)(7-(5,6,7,8-tetrahydroimidazo[1,2-a]pyridin-2-yl)-2-azaspiro[3.5]nonan-2-yl)methanone]
16	Cc1ccc(CC2CCC3(CC2)CN(C(=O)[C@H]2C[C@@](C)(O)C2)C3)cc1 [Example 397, ((1s,3s)-3-Hydroxy-3-methylcyclobutyl)(7-(4-methylbenzyl)-2-azaspiro[3.5]nonan-2-yl)methanone]
18	Cc1cccc(CC2CCC3(CC2)CN(C(=O)[C@H]2C[C@@](C)(O)C2)C3)c1F [Example 398, (7-(2-Fluoro-3-methylbenzyl)-2-azaspiro[3.5]nonan-2-yl)((1s,3s)-3-hydroxy-3-methylcyclobutyl)methanone]
19	Cc1cc(CC2CCC3(CC2)CN(C(=O)[C@H]2C[C@@](C)(O)C2)C3)ccc1F [Example 399, (7-(4-Fluoro-3-methylbenzyl)-2-azaspiro[3.5]nonan-2-yl)((1s,3s)-3-hydroxy-3-methylcyclobutyl)methanone]
311	C[C@]1(O)C[C@@H](C(=O)N2CC3(CCC(Cn4ccc5cccnc54)CC3)C2)C1 [Example 400, (7-((1H-Pyrrolo[2,3-b]pyridin-1-yl)methyl)-2-azaspiro[3.5]nonan-2-yl)((1s,3s)-3-hydroxy-3-methylcyclobutyl)methanone]
185	Cn1ncc2ccc(CC3CCC4(CC3)CN(C(=O)[C@H]3C[C@@](C)(O)C3)C4)cc21 [Example 402, ((1s,3s)-3-Hydroxy-3-methylcyclobutyl)(7-((1-methyl-1H-indazol-6-yl)methyl)-2-azaspiro[3.5]nonan-2-yl)methanone]
449	Cn1ncc2ccc(CC3CCC4(CC3)CN(C(=O)[C@H]3C[C@@](C)(O)C3)C4)nc21 [Example 403, ((1s,3s)-3-Hydroxy-3-methylcyclobutyl)(7-((1-methyl-1H-pyrazolo[3,4-b]pyridin-6-yl)methyl)-2-azaspiro[3.5]nonan-2-yl)methanone]
53	Cc1ccc(OC2CCC3(CC2)CN(C(=O)[C@H]2C[C@@](C)(O)C2)C3)cc1 [Example 404, ((1s,3s)-3-Hydroxy-3-methylcyclobutyl)(7-(p-tolyloxy)-2-azaspiro[3.5]nonan-2-yl)methanone]
32	Cc1ccc(OC2CCC3(CC2)CN(C(=O)[C@H]2C[C@@](C)(O)C2)C3)cc1C [Example 405, (7-(3,4-Dimethylphenoxy)-2-azaspiro[3.5]nonan-2-yl)((1s,3s)-3-hydroxy-3-methylcyclobutyl)methanone]
20	Cc1cccc(OC2CCC3(CC2)CN(C(=O)[C@H]2C[C@@](C)(O)C2)C3)c1C [Example 406, (7-(2,3-Dimethylphenoxy)-2-azaspiro[3.5]nonan-2-yl)((1s,3s)-3-hydroxy-3-methylcyclobutyl)methanone]
143	COc1cc(C)cc(OC2CCC3(CC2)CN(C(=O)[C@H]2C[C@@](C)(O)C2)C3)c1 [Example 407, ((1s,3s)-3-Hydroxy-3-methylcyclobutyl)(7-(3-methoxy-5-methylphenoxy)-2-azaspiro[3.5]nonan-2-yl)methanone]
33	COc1cc(OC2CCC3(CC2)CN(C(=O)[C@H]2C[C@@](C)(O)C2)C3)ccc1C [Example 408, ((1s,3s)-3-Hydroxy-3-methylcyclobutyl)(7-(3-methoxy-4-methylphenoxy)-2-azaspiro[3.5]nonan-2-yl)methanone]
42	COc1cccc(OC2CCC3(CC2)CN(C(=O)[C@H]2C[C@@](C)(O)C2)C3)c1C [Example 409, ((1s,3s)-3-Hydroxy-3-methylcyclobutyl)(7-(3-methoxy-2-methylphenoxy)-2-azaspiro[3.5]nonan-2-yl)methanone]
2.8	Cc1ccc(Cl)c(OC2CCC3(CC2)CN(C(=O)[C@H]2C[C@@](C)(O)C2)C3)c1 [Example 410, (7-(2-Chloro-5-methylphenoxy)-2-azaspiro[3.5]nonan-2-yl)((1s,3s)-3-hydroxy-3-methylcyclobutyl)methanone]
9.1	Cc1ccc(OC2CCC3(CC2)CN(C(=O)[C@H]2C[C@@](C)(O)C2)C3)cc1Cl [Example 411, (7-(3-Chloro-4-methylphenoxy)-2-azaspiro[3.5]nonan-2-yl)((1s,3s)-3-hydroxy-3-methylcyclobutyl)methanone]
1.4	Cc1cc(Cl)ccc1OC1CCC2(CC1)CN(C(=O)[C@H]1C[C@@](C)(O)C1)C2 [Example 412, (7-(4-Chloro-2-methylphenoxy)-2-azaspiro[3.5]nonan-2-yl)((1s,3s)-3-hydroxy-3-methylcyclobutyl)methanone]

IC50 [nM]	Compound
22	Cc1c(Cl)cccc1OC1CCC2(CC1)CN(C(=O)[C@H]1C[C@@](C)(O)C1)C2 [Example 413, (7-(3-Chloro-2-methylphenoxy)-2-azaspiro[3.5]nonan-2-yl)((1s,3s)-3-hydroxy-3-methylcyclobutyl)methanone]
15	COc1cc(OC2CCC3(CC2)CN(C(=O)[C@H]2C[C@@](C)(O)C2)C3)ccc1Cl [Example 414, (7-(4-Chloro-3-methoxyphenoxy)-2-azaspiro[3.5]nonan-2-yl)((1s,3s)-3-hydroxy-3-methylcyclobutyl)methanone]
3.3	C[C@]1(O)C[C@@H](C(=O)N2CC3(CCC(Oc4ccc(C5CC5)c(F)c4)CC3)C2)C1 [Example 415, (7-(4-Cyclopropyl-3-fluorophenoxy)-2-azaspiro[3.5]nonan-2-yl)((1s,3s)-3-hydroxy-3-methylcyclobutyl)methanone]
1.9	Cc1ccc(C(F)(F)F)cc1OC1CCC2(CC1)CN(C(=O)[C@H]1C[C@@](C)(O)C1)C2 [Example 416, ((1s,3s)-3-Hydroxy-3-methylcyclobutyl)(7-(2-methyl-5-(trifluoromethyl)phenoxy)-2-azaspiro[3.5]nonan-2-yl)methanone]
29	C[C@]1(O)C[C@@H](C(=O)N2CC3(CCC(Oc4ccc(C(F)(F)F)cn4)CC3)C2)C1 [Example 417, ((1s,3s)-3-Hydroxy-3-methylcyclobutyl)(7-((5-(trifluoromethyl)pyridin-2-yl)oxy)-2-azaspiro[3.5]nonan-2-yl)methanone]
180	C[C@]1(O)C[C@@H](C(=O)N2CC3(CCC(Oc4cc(C(F)(F)F)ccn4)CC3)C2)C1 [Example 418, ((1s,3s)-3-Hydroxy-3-methylcyclobutyl)(7-((4-(trifluoromethyl)pyridin-2-yl)oxy)-2-azaspiro[3.5]nonan-2-yl)methanone]
12	CC1(Oc2ccc(C(F)(F)F)cn2)CCC2(CC1)CN(C(=O)[C@H]1C[C@@](C)(O)C1)C2 [Example 419, ((1s,3s)-3-Hydroxy-3-methylcyclobutyl)(7-methyl-7-((5-(trifluoromethyl)pyridin-2-yl)oxy)-2-azaspiro[3.5]nonan-2-yl)methanone]
33	CCC1(Oc2ccc(C(F)(F)F)cn2)CCC2(CC1)CN(C(=O)[C@H]1C[C@@](C)(O)C1)C2 [Example 420, (7-Ethyl-7-((5-(trifluoromethyl)pyridin-2-yl)oxy)-2-azaspiro[3.5]nonan-2-yl)((1s,3s)-3-hydroxy-3-methylcyclobutyl)methanone]
84	C[C@]1(O)C[C@@H](C(=O)N2CC3(CCC(Oc4cccc(C(F)(F)F)n4)CC3)C2)C1 [Example 421, ((1s,3s)-3-Hydroxy-3-methylcyclobutyl)(7-((6-(trifluoromethyl)pyridin-2-yl)oxy)-2-azaspiro[3.5]nonan-2-yl)methanone]
24	CC(F)(F)c1ccc(OC2CCC3(CC2)CN(C(=O)[C@H]2C[C@@](C)(O)C2)C3)nc1 [Example 422, (7-((5-(1,1-Difluoroethyl)pyridin-2-yl)oxy)-2-azaspiro[3.5]nonan-2-yl)((1s,3s)-3-hydroxy-3-methylcyclobutyl)methanone]
188	C[C@]1(O)C[C@@H](C(=O)N2CC3(CCC(Oc4ccc(C(F)F)cn4)CC3)C2)C1 [Example 423, (7-((5-(Difluoromethyl)pyridin-2-yl)oxy)-2-azaspiro[3.5]nonan-2-yl)((1s,3s)-3-hydroxy-3-methylcyclobutyl)methanone]
99	C[C@]1(O)C[C@@H](C(=O)N2CC3(CCC(Oc4ccc(C(F)(F)F)nc4)CC3)C2)C1 [Example 424, ((1s,3s)-3-Hydroxy-3-methylcyclobutyl)(7-((6-(trifluoromethyl)pyridin-3-yl)oxy)-2-azaspiro[3.5]nonan-2-yl)methanone]
7.8	CC(C)(C)c1cccc(OC2CCC3(CC2)CN(C(=O)[C@H]2C[C@@](C)(O)C2)C3)n1 [Example 425, (7-((6-(tert-Butyl)pyridin-2-yl)oxy)-2-azaspiro[3.5]nonan-2-yl)((1s,3s)-3-hydroxy-3-methylcyclobutyl)methanone]
20	C[C@]1(O)C[C@@H](C(=O)N2CC3(CCC(Oc4ccc(C5CC5)cn4)CC3)C2)C1 [Example 426, (7-((5-Cyclopropylpyridin-2-yl)oxy)-2-azaspiro[3.5]nonan-2-yl)((1s,3s)-3-hydroxy-3-methylcyclobutyl)methanone]
28	C[C@]1(O)C[C@@H](C(=O)N2CC3(CCC(Oc4ccc(OC(F)(F)F)cn4)CC3)C2)C1 [Example 427, ((1s,3s)-3-Hydroxy-3-methylcyclobutyl)(7-((5-(trifluoromethoxy)pyridin-2-yl)oxy)-2-azaspiro[3.5]nonan-2-yl)methanone]
47	Cc1ccc(OC2CCC3(CC2)CN(C(=O)[C@H]2C[C@@](C)(O)C2)C3)nc1C [Example 428, (7-((5,6-Dimethylpyridin-2-yl)oxy)-2-azaspiro[3.5]nonan-2-yl)((1s,3s)-3-hydroxy-3-methylcyclobutyl)methanone]

Compound	IC50 [nM]
Cn1ccc2ccc(CC3CCC4(CC3)CN(C(=O)[C@H]3C[C@@](C)(O)C3)C4)nc21 [Example 401, ((1s,3s)-3-Hydroxy-3-methylcyclobutyl)(7-((1-methyl-1H-pyrrolo[2,3-b]pyridin-6-yl)methyl)-2-azaspiro[3.5]nonan-2-yl)methanone]	66
